Results: publication PMC11997307, “Rat Sarcoma (RAS)-Protein-Targeting Synthetic Cell-Penetrating Peptide as an Anticancer Biomaterial” (Biomaterials Research, 2025)

What was measured:
HCT-116 cells = experiment: Cell viability, CCK-8 assay, HCT-116; assay type: cell-based, human; settings: HCT-116 (KRAS G13D), CCK-8, 0-1,000 μM RBP, 24, 48 or 72 h, triplicate
Experimental: The viability of the cells was determined via Cell Counting Kit-8 (CCK-8; Dojindo Laboratories, Kumamoto, Japan) assay. The cells were plated in 96-well culture plates at a density of 5 × 10^3 cells per well and incubated for 24 h at 37 °C in a humidified incubator with 5% CO2. […] After incubation, the medium was replaced with fresh medium containing 10% (v/v) CCK-8 reagent, and the cells were incubated for 2 h. Absorbance was measured at 450 nm using a microplate reader. All experiments were performed in triplicate.

[1] = tested on: MDA-MB-231 cell-derived tumors; experiment: Mouse xenograft tumor model; assay type: in vivo; settings: BALB/c nude mice, MDA-MB-231 xenograft
Experimental: Female BALB/c nude mice (aged 5 to 6 weeks) were utilized in these studies to establish breast cancer xenograft models. These mice were obtained from Orient Bio, Inc. (Seongnam, Republic of Korea) and maintained in the Division of Laboratory Animal Resources animal facility throughout the experimental period. The selection, management, and experimental protocols, as well as the preparation of the animals, were conducted in accordance with the guidelines approved by the Institutional Animal Care and Use Committee of Seoul National University. All experiments adhered to the animal protocol approved by the Institutional Animal Care and Use Committee at Seoul National University (protocol number: SNU-171026-1-5). MDA-MB-231 cells were cultured until they reached 80% to 90% confluency and then harvested and prepared as suspensions (3 × 10^6 cells/100 μl in PBS) mixed with Matrigel. These cell suspensions were injected into the right hind flanks of nude mice (n = 8). […] The control mice received PBS injections. The mice were weighed, and their tumor volumes were measured 3 times per week using Vernier calipers, starting on the first day of treatment. The tumor volume was calculated using the formula tumor volume = A × B^2 × 0.52, where A represents the longest tumor diameter and B represents the shortest diameter. After 6 weeks, the mice were euthanized in a sealed chamber with CO2 gas for 5 to 10 min, and their solid tumors were harvested and fixed in 4% paraformaldehyde for subsequent analysis via immunohistochemistry (IHC).
The tissues were fixed in 4% formalin before being embedded in paraffin. Sections with a thickness of 4 μm were deparaffinized with xylene and then rehydrated with a graded series of ethanol solutions, ranging from 95% to 100%. […] Antibody binding was detected through incubation with EnVision FLEX/horseradish peroxidase (Dako) for 30 min. […] The intensity and distribution of Ki-67-specific immunostaining were assessed using a Leica DM6B digital light fluorescence microscope following hematoxylin counterstaining.

MDA-MB-231 cells = experiment: Tumor colony forming assay; assay type: cell-based, human; settings: MDA-MB-231, 0, 1, 10, 50, 100 or 200 μM RBP, 5 d, crystal violet
Experimental: MDA-MB-231 cells were plated in 24-well culture plates at a density of 1 × 10^3 cells per well and incubated for 24 h at 37 °C in a humidified incubator with 5% CO2. […] The cells were fixed with Carnoy’s fixative (75% methanol and 25% acetic acid) for 5 min at room temperature and stained with 0.4% crystal violet for 5 min. After staining, the cells were rinsed with distilled water, and images were taken.

[2] = 10 mg/kg intraperitoneal, 6 weeks

Compound: C[C@@H](O)[C@H](NC(=O)[C@H](CO)NC(=O)[C@H](CS)NC(=O)[C@H](CCCCN)NC(=O)CN)C(=O)N[C@@H](CCCNC(=N)N)C(=O)NCC(=O)N[C@@H](CCCNC(=N)N)C(=O)N[C@@H](CCCCN)C(=O)N[C@@H](CS)C(=O)N[C@@H](CS)C(=O)N[C@@H](CCCNC(=N)N)C(=O)N[C@@H](CCCNC(=N)N)C(=O)N[C@@H](CCCCN)C(=O)N[C@@H](CCCCN)C(N)=O [RBP]
- percentage of viable cells (HCT-116 cells): reduced the percentage of viable KRAS G13D mutant cells in a dose-dependent manner
- tumor growth vs not-treated group ([1]; 10 mg/kg intraperitoneal 3 times per week for 6 weeks, n = 8, P < 0.05): significant reduction
- Ki-67 expression in tumor sections (IHC) [1, 2]: decreased Ki-67 expression
- immune cell infiltration in tumors (H&E) [1, 2]: increased immune cell infiltration
- colony area (MDA-MB-231 cells): dose-dependent decrease in colony area
